Active and inactive are the calls of the source. The rule behind the calls is not given here.
Tests used:
[1] = target: Cholinesterase (Equus caballus) (UniProt P81908); assay: Inhibition of equine serum BuChE at 10 uM using butyrylthiocholine iodide as substrate preincubated for 5 mins followed by substrate addition measured after 5 mins by Ellman's method relative to control
[2] = target: Acetylcholinesterase (Electrophorus electricus) (UniProt O42275); assay: Inhibition of Electric eel AChE at 10 uM using acetylthiocholine iodide as substrate preincubated for 5 mins followed by substrate addition measured after 5 mins by Ellman's method relative to control
Acetylcholinesterase [3] = target: T1, Acetylcholinesterase (Homo sapiens, UniProt P22303); assay: Inhibition of recombinant human AChE using acetylthiocholine iodide as substrate preincubated for 5 mins followed by substrate addition measured after 5 mins by Ellman's method
[4] = target: Amyloid-beta precursor protein (Homo sapiens) (UniProt P05067); assay: Inhibition of recombinant human HFIP-pretreated amyloid beta (1 to 42) self-induced aggregation at 10 uM after 24 hrs by thioflavin T-based fluorometric assay relative to control
[5] = PAMPA, 6 h, 100 µM
Acetylcholinesterase [6] = target: Acetylcholinesterase (Electrophorus electricus, UniProt O42275)
Description: Inhibition of Electric eel AChE using acetylthiocholine iodide as substrate preincubated for 5 mins followed by substrate addition measured after 5 mins by Ellman's method

Acetylcholinesterase [7] = target: T1, Acetylcholinesterase; assay: Inhibition of recombinant human AChE using acetylthiocholine as substrate by Ellman's method
in vitro = conditions: PAMPA
[8] = target: Acetylcholinesterase (Electrophorus electricus) (UniProt O42275); assay: Non-competitive inhibition of Electric eel AChE at 0.75 to 3.5 uM using varying levels of acetylthiocholine iodide as substrate preincubated for 5 mins followed by substrate addition measured after 5 mins by Cornish-Bowden plot analysis
[9] = target: Acetylcholinesterase (Electrophorus electricus) (UniProt O42275); assay: Non-competitive inhibition of Electric eel AChE at 0.75 to 3.5 uM using varying levels of acetylthiocholine iodide as substrate preincubated for 5 mins followed by substrate addition measured after 5 mins by Lineweaver-Burk plot analysis

Chain of Cholinesterase (Equus caballus) (P81908 whole entry): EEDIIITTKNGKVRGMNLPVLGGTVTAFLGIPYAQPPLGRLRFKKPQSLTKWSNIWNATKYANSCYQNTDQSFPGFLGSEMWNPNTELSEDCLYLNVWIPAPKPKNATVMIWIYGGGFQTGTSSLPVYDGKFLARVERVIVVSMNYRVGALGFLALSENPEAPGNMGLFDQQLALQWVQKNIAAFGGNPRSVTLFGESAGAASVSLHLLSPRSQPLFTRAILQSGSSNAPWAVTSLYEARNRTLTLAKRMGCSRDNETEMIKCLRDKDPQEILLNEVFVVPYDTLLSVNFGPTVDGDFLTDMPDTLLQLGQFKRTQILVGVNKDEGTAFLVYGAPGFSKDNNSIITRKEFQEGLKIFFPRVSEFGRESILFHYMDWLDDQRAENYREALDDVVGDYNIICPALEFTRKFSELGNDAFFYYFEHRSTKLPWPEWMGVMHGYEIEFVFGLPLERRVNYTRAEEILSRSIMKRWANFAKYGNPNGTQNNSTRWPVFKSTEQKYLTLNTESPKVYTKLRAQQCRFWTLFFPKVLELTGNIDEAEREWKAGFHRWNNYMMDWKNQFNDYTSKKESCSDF
Chain of Acetylcholinesterase (Electrophorus electricus) (O42275 24-633 limits assumed): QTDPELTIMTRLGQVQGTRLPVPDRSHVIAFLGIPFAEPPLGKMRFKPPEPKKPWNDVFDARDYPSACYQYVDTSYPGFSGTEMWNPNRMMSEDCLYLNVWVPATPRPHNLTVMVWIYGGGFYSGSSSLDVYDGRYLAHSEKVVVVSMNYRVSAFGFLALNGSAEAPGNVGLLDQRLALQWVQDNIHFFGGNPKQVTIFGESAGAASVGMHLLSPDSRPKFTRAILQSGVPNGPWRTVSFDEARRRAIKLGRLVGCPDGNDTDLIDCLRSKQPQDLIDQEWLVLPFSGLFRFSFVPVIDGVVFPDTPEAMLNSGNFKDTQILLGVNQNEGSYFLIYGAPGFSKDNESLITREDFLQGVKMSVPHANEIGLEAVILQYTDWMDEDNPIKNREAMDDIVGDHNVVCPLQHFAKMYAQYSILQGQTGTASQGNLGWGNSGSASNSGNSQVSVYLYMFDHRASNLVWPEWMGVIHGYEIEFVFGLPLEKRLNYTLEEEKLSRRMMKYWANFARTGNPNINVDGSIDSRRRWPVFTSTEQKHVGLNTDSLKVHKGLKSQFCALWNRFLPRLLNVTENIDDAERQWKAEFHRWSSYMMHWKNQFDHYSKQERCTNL
Chain of Acetylcholinesterase (Electrophorus electricus, UniProt O42275) (O42275 whole entry): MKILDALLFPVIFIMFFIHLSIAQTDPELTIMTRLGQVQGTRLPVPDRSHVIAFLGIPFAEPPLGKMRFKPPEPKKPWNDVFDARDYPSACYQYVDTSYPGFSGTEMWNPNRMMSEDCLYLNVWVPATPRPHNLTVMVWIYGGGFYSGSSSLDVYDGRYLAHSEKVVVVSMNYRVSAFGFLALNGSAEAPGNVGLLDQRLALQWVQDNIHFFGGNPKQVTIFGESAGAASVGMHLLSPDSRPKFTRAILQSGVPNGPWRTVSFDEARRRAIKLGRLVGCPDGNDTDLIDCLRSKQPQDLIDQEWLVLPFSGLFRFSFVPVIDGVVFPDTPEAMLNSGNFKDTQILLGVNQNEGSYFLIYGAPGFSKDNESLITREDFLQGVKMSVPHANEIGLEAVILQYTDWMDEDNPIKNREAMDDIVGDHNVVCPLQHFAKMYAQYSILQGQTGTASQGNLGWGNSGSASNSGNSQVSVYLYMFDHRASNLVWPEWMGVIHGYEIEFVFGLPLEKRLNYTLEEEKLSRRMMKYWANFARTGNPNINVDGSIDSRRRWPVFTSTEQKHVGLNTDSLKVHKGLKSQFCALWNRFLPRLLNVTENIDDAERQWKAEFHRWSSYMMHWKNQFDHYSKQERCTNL
T1 sequence (P22303 whole entry): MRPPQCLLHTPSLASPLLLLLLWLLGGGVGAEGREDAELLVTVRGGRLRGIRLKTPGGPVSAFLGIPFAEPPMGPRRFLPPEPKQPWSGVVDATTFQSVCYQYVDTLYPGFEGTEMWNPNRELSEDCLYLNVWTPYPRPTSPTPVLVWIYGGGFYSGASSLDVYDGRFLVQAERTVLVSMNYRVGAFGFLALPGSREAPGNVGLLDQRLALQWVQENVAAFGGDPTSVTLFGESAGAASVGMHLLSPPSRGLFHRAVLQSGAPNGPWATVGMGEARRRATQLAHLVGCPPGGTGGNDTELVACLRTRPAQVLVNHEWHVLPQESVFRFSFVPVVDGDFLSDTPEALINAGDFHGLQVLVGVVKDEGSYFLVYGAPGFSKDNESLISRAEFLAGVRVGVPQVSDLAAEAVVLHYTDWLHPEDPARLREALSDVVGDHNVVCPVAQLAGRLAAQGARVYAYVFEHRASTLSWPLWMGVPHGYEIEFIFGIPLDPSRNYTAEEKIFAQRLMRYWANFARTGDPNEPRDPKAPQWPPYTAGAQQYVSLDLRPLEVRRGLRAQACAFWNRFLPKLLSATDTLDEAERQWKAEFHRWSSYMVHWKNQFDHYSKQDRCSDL
Chain of Amyloid-beta precursor protein (Homo sapiens) (P05067 whole entry): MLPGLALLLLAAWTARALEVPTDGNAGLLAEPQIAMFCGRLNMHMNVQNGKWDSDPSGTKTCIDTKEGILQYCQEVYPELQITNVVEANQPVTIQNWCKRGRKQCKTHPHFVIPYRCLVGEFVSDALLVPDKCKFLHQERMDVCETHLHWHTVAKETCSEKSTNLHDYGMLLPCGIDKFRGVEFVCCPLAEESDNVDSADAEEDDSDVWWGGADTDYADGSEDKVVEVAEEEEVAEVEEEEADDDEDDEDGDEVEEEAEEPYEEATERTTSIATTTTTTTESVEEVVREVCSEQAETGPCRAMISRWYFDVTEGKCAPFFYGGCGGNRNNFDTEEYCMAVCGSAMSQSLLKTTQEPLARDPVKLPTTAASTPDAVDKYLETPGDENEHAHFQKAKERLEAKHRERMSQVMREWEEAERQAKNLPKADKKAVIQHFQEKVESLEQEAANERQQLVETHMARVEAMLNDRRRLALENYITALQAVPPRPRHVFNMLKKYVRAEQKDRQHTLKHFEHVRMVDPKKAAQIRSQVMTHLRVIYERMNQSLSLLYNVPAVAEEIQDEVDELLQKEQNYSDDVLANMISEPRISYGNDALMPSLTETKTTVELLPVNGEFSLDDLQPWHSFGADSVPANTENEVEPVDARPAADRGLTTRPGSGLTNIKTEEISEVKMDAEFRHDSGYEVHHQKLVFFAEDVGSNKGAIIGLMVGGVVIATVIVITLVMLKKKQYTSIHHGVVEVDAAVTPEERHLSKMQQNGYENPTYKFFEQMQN

Row | SMILES | inhibition [1] [%] | inhibition [2] [%] | IC50 (Acetylcholinesterase [6]) [µM] | other results
1 | O=C1c2ccccc2S(=O)(=O)N1CCN1CCN(CCc2ccccc2)CC1 | 18.4 | < 10 |  | 
2 | O=C1c2ccccc2C(=O)N1CCNC1CCN(Cc2ccccc2)C1 (stereo unspecified) | 21.4 | 25.7 |  | 
3 | O=C1c2ccccc2S(=O)(=O)N1CCCCCNCc1ccccc1 |  |  |  | IC50 (Acetylcholinesterase [3]): 33 nM; inhibition [4]: 22.2%
4 | O=C1c2ccccc2S(=O)(=O)N1CCN1CCCC(NCc2ccccc2F)C1 (stereo unspecified) | < 10 | < 10 |  | 
5 | CCN(C)C(=O)Oc1cccc([C@H](C)N(C)C)c1 [RIVASTIGMINE] |  |  |  | permeability [5]: 6.6 ×10⁻⁶ cm/s
6 | O=C1c2ccccc2S(=O)(=O)N1CCN1CCN(Cc2cccc(F)c2)CC1 | < 10 | > 50 | 2.14 | 
7 | O=C1c2ccccc2S(=O)(=O)N1CCCN1CCN(Cc2ccccc2)CC1 | 11.7 | 34.2 |  | 
8 | O=C1c2ccccc2C(=O)N1CCNC1CCCN(Cc2ccccc2F)C1 (stereo unspecified) | 28.3 | 18.9 |  | 
9 | O=C1c2ccccc2S(=O)(=O)N1CCN1CCCN(Cc2cc(F)cc(F)c2)C1 | 16.4 | 25.4 |  | 
10 | CCN(Cc1ccccc1)Cc1ccc(-c2cc3cc(OCCNC(=O)/C=C/c4cc(F)cc(F)c4)ccc3oc2=O)cc1 |  |  |  | IC50 (Acetylcholinesterase [7]): 7.16 nM
11 | O=C1c2ccccc2C(=O)N1CCN1CCCN(Cc2ccccc2F)C1 | 27.8 | < 10 |  | 
12 | O=C1c2ccccc2S(=O)(=O)N1CCN1CCN(CCc2ccccc2F)CC1 | 11.3 | < 10 |  | 
13 | O=C1c2ccccc2C(=O)N1CCN1CCCC(NCc2cc(F)cc(F)c2)C1 (stereo unspecified) | 20 | > 50 | 6.47 | 
14 | O=C1c2ccccc2S(=O)(=O)N1CCN1CCN(Cc2cc(F)cc(F)c2)CC1 | 11 | > 50 | 19.2 | 
15 | O=C1c2ccccc2C(=O)N1CCNC1CCCN(Cc2ccccc2)C1 (stereo unspecified) | 16 | < 10 |  | 
16 | O=C1c2ccccc2S(=O)(=O)N1CCN1CCCC(NCc2cc(F)cc(F)c2)C1 (stereo unspecified) | < 10 | < 10 |  | 
17 | O=C1c2ccccc2C(=O)N1CCN1CCN(Cc2cc(F)cc(F)c2)CC1 | 14.2 | < 10 |  | 

Row | SMILES | inhibition [1] [%] | inhibition [2] [%] | IC50 (Acetylcholinesterase [6]) [µM] | other results
18 | O=C1c2ccccc2S(=O)(=O)N1CCN1CCN(Cc2ccc(F)cc2)CC1 | 47.5 | > 50 | 6.28 | Papp at 6 h, 100 µM (in vitro): 3.65 ×10⁻⁶ cm/s
19 | O=C1c2ccccc2S(=O)(=O)N1CCN1CCN(Cc2ccccc2)CC1 | 22.1 | > 50 | 0.83 | inhibition [8]: Active; inhibition [9]: Active; Papp at 6 h, 100 µM (in vitro): 3.75 ×10⁻⁶ cm/s
20 | O=C1c2ccccc2C(=O)N1CCNC1CCCN(Cc2cc(F)cc(F)c2)C1 (stereo unspecified) | 14.2 | < 10 |  | 
21 | O=C1c2ccccc2S(=O)(=O)N1CCN1CCN(Cc2ccccc2F)CC1 | 16.1 | > 50 | 17.8 | 
22 | O=C1c2ccccc2C(=O)N1CCN1CCCC(NCc2ccccc2F)C1 (stereo unspecified) | < 10 | 15.3 |  | 
23 | O=C1c2ccccc2S(=O)(=O)N1CCN1CCCN(Cc2ccccc2F)C1 | 21.6 | 18.4 |  | 
24 | O=C1c2ccccc2S(=O)(=O)N1CCCCN1CCN(Cc2ccccc2)CC1 | 41.5 | > 50 | 3.01 | Papp at 6 h, 100 µM (in vitro): 10.6 ×10⁻⁶ cm/s
25 | O=C1c2ccccc2S(=O)(=O)N1CCCCCN1CCN(Cc2ccccc2)CC1 | 30.4 | 43.1 |  | 
26 | O=C1c2ccccc2S(=O)(=O)N1CCCCN1CCN(Cc2ccccc2F)CC1 | 29.6 | > 50 | 4.25 | Papp at 6 h, 100 µM (in vitro): 11 ×10⁻⁶ cm/s
27 | O=C1c2ccccc2S(=O)(=O)N1CCCN1CCN(Cc2ccccc2F)CC1 | 12 | < 10 |  | 
28 | O=C1c2ccccc2S(=O)(=O)N1CCCCCCN1CCN(Cc2ccccc2)CC1 | 41.8 | 41.7 |  | 
29 | O=C1c2ccccc2S(=O)(=O)N1CCCCCCN1CCN(Cc2ccccc2F)CC1 | 31.6 | > 50 | 8.43 | 
30 | O=C1c2ccccc2C(=O)N1CCN1CCN(CCc2ccccc2F)CC1 | 20.3 | < 10 |  | 
31 | O=C1c2ccccc2C(=O)N1CCN1CCCN(Cc2cc(F)cc(F)c2)C1 | < 10 | < 10 |  | 
32 | O=C1c2ccccc2C(=O)N1CCN1CCN(Cc2ccccc2F)CC1 | < 10 | 41.8 |  | 
33 | O=C1c2ccccc2S(=O)(=O)N1CCCCCN1CCN(Cc2ccccc2F)CC1 | 21.9 | > 50 | 7.36 | Papp at 6 h, 100 µM (in vitro): 9.6 ×10⁻⁶ cm/s

From ChEMBL document CHEMBL3877277, “Design, synthesis and biological evaluation of new phthalimide and saccharin derivatives with alicyclic amines targeting cholinesterases, beta-secretase and amyloid beta aggregation” (Eur J Med Chem, 2017)
